Experimental data published in patent US20260355165A1, “2,3,4,9-TETRAHYDRO-1H-PYRIDO[3,4-B]INDOLE DERIVATIVES AS ESTROGEN RECEPTOR MODULATORS FOR THE TREATMENT OF CANCER” (Olema Pharmaceuticals, Inc., priority 2022, published 2026).

Each molecule was assayed against T1, estrogen receptor (Homo sapiens, UniProt P03372) (assay: AP assay (alkaline phosphatase activity in ECC-1 cells), agonist mode (absence of E2) and antagonist mode (presence of 500 pM E2)). Settings: 3 days, AP activity normalized to 500 pM E2 alone, agonist and antagonist mode combined.
T1 construct: endogenous in cells; host or cells: ECC-1 cells
T1 sequence (P03372 1-595): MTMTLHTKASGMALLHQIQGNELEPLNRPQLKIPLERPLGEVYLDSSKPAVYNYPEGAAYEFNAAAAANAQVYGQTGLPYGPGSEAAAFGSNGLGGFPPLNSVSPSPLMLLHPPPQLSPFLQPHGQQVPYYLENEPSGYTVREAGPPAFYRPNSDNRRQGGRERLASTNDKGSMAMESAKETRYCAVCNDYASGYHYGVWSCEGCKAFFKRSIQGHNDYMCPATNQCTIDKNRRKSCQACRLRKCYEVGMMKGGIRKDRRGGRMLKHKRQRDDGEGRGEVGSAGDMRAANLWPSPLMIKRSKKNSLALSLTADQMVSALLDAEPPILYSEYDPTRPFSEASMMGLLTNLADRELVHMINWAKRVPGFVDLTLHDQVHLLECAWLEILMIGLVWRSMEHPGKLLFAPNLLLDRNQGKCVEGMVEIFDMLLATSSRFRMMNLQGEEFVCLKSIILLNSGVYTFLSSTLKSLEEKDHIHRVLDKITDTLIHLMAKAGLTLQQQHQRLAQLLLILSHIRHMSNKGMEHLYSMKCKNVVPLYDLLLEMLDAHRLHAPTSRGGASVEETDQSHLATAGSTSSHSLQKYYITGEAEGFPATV
Type: cell-based
Summary of the method: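 ECC-1 cells in hormone-depleted medium treated with compounds for 3 days, without E2 (agonist mode) or with 500 pM E2 (antagonist mode). AP activity read at 405 nm after p-nitrophenyl phosphate substrate, 40 min at 42 °C. Signal normalized to 500 pM E2 alone.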
CCCN(C)Cc1ccc2c([C@@H]3c4[nH]c5ccccc5c4C[C@@H](C)N3CC(C)(C)F)c[nH]c2c1 [Compound I-7, N-[[3-[(1R,3R)-2-(2-fluoro-2-methyl-propyl)-3-methyl-1,3,4,9-tetrahydropyrido[3,4-b]indol-1-yl]-1H-indol-6-yl]methyl]-N-methyl-propan-1-amine] was tested, and the “Activity (estrogen receptor modulation, e.g., agonism and antagonism)” value (from here on “Activity”) was “+ (estrogen receptor agonism having (i) at least 80% increase in the E2-normalized signal in the AP assay (agonist mode) and (ii) no more than 80% reduction in the E2-normalized signal in the AP assay (antagonist mode))”.
C[C@@H]1Cc2c([nH]c3ccccc23)[C@@H](c2c[nH]c3cc(CO)ccc23)N1CC(C)(C)F [Compound I-1, [3-[(1R,3R)-2-(2-fluoro-2-methyl-propyl)-3-methyl-1,3,4,9-tetrahydropyrido[3,4-b]indol-1-yl]-1H-indol-6-yl]methanol] was tested, and the “Activity” value was “+ (estrogen receptor agonism having (i) at least 80% increase in the E2-normalized signal in the AP assay (agonist mode) and (ii) no more than 80% reduction in the E2-normalized signal in the AP assay (antagonist mode))”.
With CC1CN(Cc2ccc3c([C@@H]4c5[nH]c6ccccc6c5C[C@@H](C)N4CC(F)(F)CO)n[nH]c3c2)C1 [Compound I-17, 2,2-difluoro-3-((1S,3R)-3-methyl-1-(6-((3-methylazetidin-1-yl)methyl)-1H-indazol-3-yl)-1,3,4,9-tetrahydro-2H-pyrido[3,4-b]indol-2-yl)propan-1-ol] the “Activity” value was “+++ (estrogen receptor antagonism (i) with pIC50 greater than 7.5 and at least a 10% reduction in the E2-normalized signal in the AP assay (antagonist mode); and (ii) no more than 10% increase in E2-normalized signal in the AP assay (agonist mode))”.
With C[C@@H]1Cc2c([nH]c3ccccc23)[C@@H](c2cc3nc(CN4CC(CF)C4)oc3cc2F)N1CC(C)(C)F [Compound I-78, 6-fluoro-2-[[3-(fluoromethyl)azetidin-1-yl]methyl]-5-[(1R,3R)-2-(2-fluoro-2-methyl-propyl)-3-methyl-1,3,4,9-tetrahydropyrido[3,4-b]indol-1-yl]-1,3-benzoxazole] the “Activity” value was “+ (estrogen receptor agonism having (i) at least 80% increase in the E2-normalized signal in the AP assay (agonist mode) and (ii) no more than 80% reduction in the E2-normalized signal in the AP assay (antagonist mode))”.
For C[C@@H]1Cc2c([nH]c3ccccc23)[C@@H](c2ccn3cc(CN4CC(CF)C4)nc3c2)N1CC(C)(C)F [Compound I-74, (1R,3R)-1-[2-[[3-(fluoromethyl)azetidin-1-yl]methyl]imidazo[1,2-a]pyridin-7-yl]-2-(2-fluoro-2-methyl-propyl)-3-methyl-1,3,4,9-tetrahydropyrido[3,4-b]indole], the “Activity” value was “+++ (estrogen receptor antagonism (i) with pIC50 greater than 7.5 and at least a 10% reduction in the E2-normalized signal in the AP assay (antagonist mode); and (ii) no more than 10% increase in E2-normalized signal in the AP assay (agonist mode))”.
For C[C@@H]1Cc2c([nH]c3ccccc23)[C@@H](c2ccc3[nH]c(CN4CC(CF)C4)cc3n2)N1CC(C)(C)F [Compound I-70, (1S,3R)-1-[2-[[3-(fluoromethyl)azetidin-1-yl]methyl]-1H-pyrrolo[3,2-b]pyridin-5-yl]-2-(2-fluoro-2-methyl-propyl)-3-methyl-1,3,4,9-tetrahydropyrido[3,4-b]indole], the “Activity” value was “+ (estrogen receptor agonism having (i) at least 80% increase in the E2-normalized signal in the AP assay (agonist mode) and (ii) no more than 80% reduction in the E2-normalized signal in the AP assay (antagonist mode))”.
C[C@@H]1Cc2c([nH]c3ccccc23)[C@@H](c2c[nH]c3cc(CNCCCF)ccc23)N1CC(C)(C)F [Compound I-8, 3-fluoro-N-[[3-[(1R,3R)-2-(2-fluoro-2-methyl-propyl)-3-methyl-1,3,4,9-tetrahydropyrido[3,4-b]indol-1-yl]-1H-indol-6-yl]methyl]propan-1-amine] was tested, and the “Activity” value was “+ (estrogen receptor agonism having (i) at least 80% increase in the E2-normalized signal in the AP assay (agonist mode) and (ii) no more than 80% reduction in the E2-normalized signal in the AP assay (antagonist mode))”.
With C[C@@H]1Cc2c([nH]c3ccccc23)[C@@H](c2ccc3sc(CN4CC(CF)C4)nc3c2)N1CC(C)(C)F [Compound I-103, 2-[[3-(fluoromethyl)azetidin-1-yl]methyl]-5-[(1R,3R)-2-(2-fluoro-2-methyl-propyl)-3-methyl-1,3,4,9-tetrahydropyrido[3,4-b]indol-1-yl]-1,3-benzothiazole] the “Activity” value was “+ (estrogen receptor agonism having (i) at least 80% increase in the E2-normalized signal in the AP assay (agonist mode) and (ii) no more than 80% reduction in the E2-normalized signal in the AP assay (antagonist mode))”.
For CCN1CC(n2cc3cc([C@@H]4c5[nH]c6ccccc6c5C[C@@H](C)N4CC(F)(F)CO)ccc3n2)C1 (racemic) [Compound I-107, 2,2-difluoro-3-[rac-(1R,3R)-1-[2-(1-ethylazetidin-3-yl)indazol-5-yl]-3-methyl-1,3,4,9-tetrahydropyrido[3,4-b]indol-2-yl]propan-1-ol], the “Activity” value was “+ (estrogen receptor agonism having (i) at least 80% increase in the E2-normalized signal in the AP assay (agonist mode) and (ii) no more than 80% reduction in the E2-normalized signal in the AP assay (antagonist mode))”.
In the case of C[C@@H]1Cc2c([nH]c3ccccc23)[C@@H](c2cc3cc(CN4CC(CF)C4)ccc3[nH]2)N1CC(C)(C)F [Compound I-41, (1R,3R)-1-[5-[[3-(fluoromethyl)azetidin-1-yl]methyl]-1H-indol-2-yl]-2-(2-fluoro-2-methyl-propyl)-3-methyl-1,3,4,9-tetrahydropyrido[3,4-b]indole], the “Activity” value is reported as “++ (estrogen receptor antagonism having (i) between 10% and 80% increase in the E2-normalized signal in the AP assay (agonist mode) and (ii) between 10% and 80% reduction in the E2-normalized signal in the AP assay (antagonist mode))”.
For C[C@@H]1Cc2c([nH]c3ccccc23)[C@@H](c2cc3[nH]c(C(=O)O)cc3s2)N1CC(C)(C)F.N [Compound I-65, ammonium; 2-[(1S,3R)-2-(2-fluoro-2-methyl-propyl)-3-methyl-1,3,4,9-tetrahydropyrido[3,4-b]indol-1-yl]-4H-thieno[3,2-b]pyrrole-5-carboxylate], the “Activity” value was “++ (estrogen receptor antagonism having (i) between 10% and 80% increase in the E2-normalized signal in the AP assay (agonist mode) and (ii) between 10% and 80% reduction in the E2-normalized signal in the AP assay (antagonist mode))”.
C[C@@H]1Cc2c([nH]c3ccccc23)[C@@H](c2n[nH]c3cc(CO)ccc23)N1CC(C)(C)F [Compound I-2, [3-[(1S,3R)-2-(2-fluoro-2-methyl-propyl)-3-methyl-1,3,4,9-tetrahydropyrido[3,4-b]indol-1-yl]-1H-indazol-6-yl]methanol] was tested, and the “Activity” value was “+ (estrogen receptor agonism having (i) at least 80% increase in the E2-normalized signal in the AP assay (agonist mode) and (ii) no more than 80% reduction in the E2-normalized signal in the AP assay (antagonist mode))”.
In the case of C[C@@H]1Cc2c([nH]c3ccccc23)[C@@H](c2ccc3[nH]c(CN4CC(C#N)C4)cc3c2)N1CC(C)(C)F [Compound I-50, 1-[[5-[(1R,3R)-2-(2-fluoro-2-methyl-propyl)-3-methyl-1,3,4,9-tetrahydropyrido[3,4-b]indol-1-yl]-1H-indol-2-yl]methyl]azetidine-3-carbonitrile], the “Activity” value is reported as “+ (estrogen receptor agonism having (i) at least 80% increase in the E2-normalized signal in the AP assay (agonist mode) and (ii) no more than 80% reduction in the E2-normalized signal in the AP assay (antagonist mode))”.
In the case of C[C@@H]1Cc2c([nH]c3ccccc23)[C@@H](c2ccc3[nH]c(CN4CC5(C4)CC(O)(C(F)F)C5)cc3c2)N1CC(C)(C)F [Compound I-49, 6-(difluoromethyl)-2-[[5-[(1R,3R)-2-(2-fluoro-2-methyl-propyl)-3-methyl-1,3,4,9-tetrahydropyrido[3,4-b]indol-1-yl]-1H-indol-2-yl]methyl]-2-azaspiro[3.3]heptan-6-ol], the “Activity” value is reported as “+ (estrogen receptor agonism having (i) at least 80% increase in the E2-normalized signal in the AP assay (agonist mode) and (ii) no more than 80% reduction in the E2-normalized signal in the AP assay (antagonist mode))”.
In the case of C[C@@H]1Cc2c([nH]c3ccccc23)[C@@H](c2ccc3[nH]c(CN4CC(CF)C4)cc3c2)N1CC(F)(F)CO [Compound I-45, 2,2-difluoro-3-[(1R,3R)-1-[2-[[3-(fluoromethyl)azetidin-1-yl]methyl]-1H-indol-5-yl]-3-methyl-1,3,4,9-tetrahydropyrido[3,4-b]indol-2-yl]propan-1-ol], the “Activity” value is reported as “+++ (estrogen receptor antagonism (i) with pIC50 greater than 7.5 and at least a 10% reduction in the E2-normalized signal in the AP assay (antagonist mode); and (ii) no more than 10% increase in E2-normalized signal in the AP assay (agonist mode))”.
